Patent publication US20220008430A1, “METHODS OF TREATING SUBJECTS HAVING PLATELET DYSFUNCTION WITH IV MELOXICAM” (priority 2018, published 2022)
Read-outs that look alike come from different tables or passages of the source.

Legend:
COX-2 / COX-1 = details: ratio of IC80 of COX-2 to IC80 of COX-1; Warner 1999; cited from earlier work
pain [1] = details: intravenous; Prescribing Information; cited from earlier work
platelet function [2] = experiment: PFA-100 closure time, ex vivo whole blood, CEPI reagent cartridge; format: cell-based, human
Procedure: (§1) The PFA-100 device determines closure time by simulating platelet adhesion and aggregation following vascular injury.
(§2) Study subjects (n=13) had approximately 20 mL of whole blood collected in tubes containing 3.2% (0.105 M) buffered sodium citrate (1 part anticoagulant to 9 parts blood).
(§3) Assessment of platelet function: Platelet function was evaluated using the PFA-100 Platelet Function Analyzer (Siemens Healthcare Diagnostics, Deerfield, Ill.). […] Use of this device to measure the effect of drugs on platelet adhesion is well documented. The PFA-100 device determines a sample closure time by simulating the platelet adhesion and aggregation that occurs following vascular injury. Analysis was performed using both collagen with epinephrine (CEPI) and collagen with adenosine diphosphate (CADP) reagent cartridges. […] Whole blood aliquots were treated according to the test condition and incubated for approximately 10 minutes prior to analysis in the PFA-100. All blood samples were analyzed within 2.5 hours of the time of collection. PFA-100 closure time results were reported for each test condition and reagent cartridge. […] Samples outside this range were excluded from the primary analysis.
(§4) Statistical analysis: Treatment effect on CT was analyzed using an analysis of variance (ANOVA). […] Pairwise comparisons were performed; nominal P-values were reported without controlling for multiplicity. Subgroup analysis by gender was also performed. All analyses were performed separately for each reagent.

platelet aggregation = details: healthy volunteers; 0.4 mg/kg; previous studies; cited from earlier work
[3] = cited from earlier work
platelet function [4] = experiment: PFA-100 closure time, ex vivo whole blood, CADP reagent cartridge; format: cell-based, human
Procedure: as §1, §2, §3, §4

pain [5] = experiment: Time course of analgesic effect; format: in vivo, human; details: meloxicam administration as disclosed (IV)
[6] = cited from earlier work; remark: listed apart in the source
[7] = all eligible subjects (12 subjects), 2.5 μg/mL
[8] = all eligible subjects (12 subjects), 5 μg/mL

For `CC(=O)Oc1ccccc1C(=O)O` [Aspirin, acetylsalicylic acid], the “COX-2/COX-1 IC80 ratio” value (COX-2 / COX-1) is given as 3.8.

For `CC(C)Cc1ccc(C(C)C(=O)O)cc1` (stereo not drawn) [Ibuprofen], the “COX-2/COX-1 IC80 ratio” value (COX-2 / COX-1) is given as 2.6.

In the case of `O=C(c1ccccc1)c1ccc2n1CCC2C(=O)O` (stereo not drawn) [Ketorolac], the “time to onset of pain relief” value (pain [1]) is listed as “up to 30 minutes”, the “LS mean closure time” value (platelet function [2]; [7]) is listed as 193.17 s and the “LS mean closure time” value (platelet function [2]; [8]) is listed as 191.58 s. For the same molecule, the “LS mean closure time” value (platelet function [2]; final analysis set (8 subjects), 2.5 μg/mL) was 180.87 s, the “LS mean closure time” value (platelet function [2]; final analysis set (8 subjects), 5 μg/mL) was 143.38 s and the “prolongation in closure time vs untreated control” value (platelet function [2]; therapeutic (and for meloxicam IV supratherapeutic) concentrations) was “significant prolongations”. The “COX-2/COX-1 IC80 ratio” value (COX-2 / COX-1) was 294, the bleeding time (platelet aggregation) was “prolonged bleeding times” and the “epinephrine-, adenosine-, and collagen-induced platelet aggregation” value (platelet aggregation) was “significant inhibition”. For the same molecule, the peak concentration ([3]; following 15-mg IV dose) was roughly 2.5 µg/mL, the peak concentration ([3]; following 30-mg IV dose) was roughly 5 µg/mL and the “LS mean closure time” value (platelet function [4]; [7]) was 82.08 s. The “LS mean closure time” value (platelet function [4]; [8]) was 86.36 s, the “difference in closure time vs untreated control” value (platelet function [4]; all tested concentrations) was “no statistically significant differences” and the “LS mean closure time” value (platelet function [4]; final analysis set (8 subjects), 2.5 μg/mL in whole blood) was 79.41 s. For the same molecule, the “LS mean closure time” value (platelet function [4]; final analysis set (8 subjects), 2.5 μg/mL in whole blood, listed as ketorolac) was 79.41 (5.31) seconds, the “LS mean closure time” value (platelet function [4]; final analysis set (8 subjects), 5 μg/mL in whole blood) was 87.95 s and the “LS mean closure time” value (platelet function [4]; final analysis set (8 subjects), 5 μg/mL in whole blood, listed as ketorolac) was 87.95 (5.66) seconds.

For `Cc1cnc(NC(=O)C2=C(O)c3ccccc3S(=O)(=O)N2C)s1` [Meloxicam, 4-hydroxy-2-methyl-N-(5-methyl-2-thiazolyl)-2H-1,2-benzothiazine-3-carboxamide-1,1-dioxide], the therapeutic window (pain [5]) is listed as “at least 24 hours” and the water solubility [6] is listed as “poor water solubility”.

In the case of `COc1ccc2cc([C@H](C)C(=O)O)ccc2c1` [Naproxen], the “COX-2/COX-1 IC80 ratio” value (COX-2 / COX-1) is given as 3.

In the case of `CS(=O)(=O)c1ccc(C2=C(c3ccccc3)C(=O)OC2)cc1` [Rofecoxib], the “COX-2/COX-1 IC80 ratio” value (COX-2 / COX-1) is listed as less than 0.05.
